US12156893B2, “Oral composition comprising lactic acid bacteria for regulating immune responses and methods related thereto” (The Regents of the University of California, priority 2016, dated 2024)

Each substance was assayed on NK cells (assay: Production of cytokines, growth factors and chemokines by NK cells treated with bacterial strains (Bio-Plex 27-plex)). Conditions: Treatment NK (no activation); bacteria 1:5 NK cell:bacteria, 12-18 hours.
Format: cell-based, human
Design: unit not given here
Method: Different strains of probiotic bacteria were tested for their ability to induce IFN-g as well as a number of important cytokines, chemokines and growth factors (Table 1). To assess the levels of each strain used in the combination we used an activation index established in the lab for the NK cells which consisted of the use of a specific ratio of several important cytokines and chemokines that prevented auto-immunity while enhancing significant activation of NK cells under pathologic conditions. Therefore, the strains were selected to: 1) provide regulated activation of NK cells when no activation of NK cells is desired; 2) when activated by cytokines and/or cross-linking of the important receptors which occurs during functional activation of NK cells in cancer is to induce maximal activation of NK cells; and 3) provide diversity for gut microflora. These criteria allow us to use bacteria to regulate the gut mucosal immunity in such a way that we will only increase NK activation when needed during infections or malignancies. In other words when there is no need for function of NK cells bacteria will regulate NK function to not induce inflammation; however, during need which occurs under the pathological conditions NK cells are triggered to function at the maximal levels. Such coordinated regulation of NK cell function should be effective in halting unwanted inflammation while providing effective and maximal immunity during disease.
Written informed consents, approved by UCLA Institutional Review Board (IRB), were obtained from healthy blood donors, and all procedures were approved by the UCLA-IRB. Peripheral blood was separated using Ficoll-Hypaque centrifugation, after which the white, cloudy layer, containing peripheral blood mononuclear cells (PBMC), was harvested, washed and re-suspended in RPMI 1640 (Invitrogen by Life Technologies, CA) supplemented with 10% FBS and plated on plastic tissue culture dishes. After 1-2 hours of incubation, non-adherent, human peripheral blood lymphocytes (PBL) were collected. NK cells were negatively selected and isolated from PBLs using the EasySep® Human NK cell enrichment kit purchased from Stem Cell Technologies (Vancouver, BC, Canada). Isolated NK cells were stained with anti-CD16 antibody, to measure NK cell purity using flow cytometric analysis. The isolated NK cell population was greater than 90% purity. Purified NK cells were cultured in RPMI Medium 1640 supplemented with 10% FBS (Gemini Bio-Products, CA), 1% antibiotic antimycotic, 1% sodium pyruvate, and 1% MEM non-essential amino acids (Invitrogen, Life Technologies, CA).
Purified NK cells from healthy donors were left untreated or treated with IL-2 (1000 units/ml) or the combination of anti-CD16 mAb (3 μg/ml) and IL-2 (1000 units/ml) in the presence or absence of bacterial strains at 1:5 ratio (NK cell: bacteria) for 12-18 hours. Afterwards, the levels of cytokines, growth factors and chemokines were determined using Bio-Plex Pro Human Cytokine 27-plex Assay Kit.
Work on “Lactobacillus acidophilus [L. acidophilus]” yielded an Eotaxin of 16, a G-CSF of 141 and a GM-CSF of 110. It also gave an IFN-γ of 366, an IL-1B of 819 and an IL-1ra of 181. The IL-6 was 10357, the IL-8 was 6879 and the IL-10 was 62. For the same substance, the IL-12p70 was 299, the IL-13 was 5 and the IL-17 was 63. It also gave an IP-10 of 77, an MCP-1 of 400 and an RANTES of 2553. For the same substance, the TNF-α was 6858.
Substance Lactobacillus paracasei [L. paracasei] has an Eotaxin of 4, a G-CSF of 106 and a GM-CSF of 99. For the same substance, the IFN-γ was 186, the IL-1B was 320 and the IL-1ra was 129. It also gave an IL-6 of 3029, an IL-8 of 3716 and an IL-10 of 70. It also gave an IL-12p70 of 70, an IL-13 of 8 and an IL-17 of 40. The IP-10 was 53, the MCP-1 was 506 and the RANTES was 1069. The TNF-α was 3809.
Substance Lactobacillus plantarum [L. plantarum] has an Eotaxin of 36, a G-CSF of 236 and a GM-CSF of 122. For the same substance, the IFN-γ was 282, the IL-1B was 645 and the IL-1ra was 323. The IL-6 was 9500, the IL-8 was 17756 and the IL-10 was 85. It also gave an IL-12p70 of 130, an IL-13 of 8 and an IL-17 of 78. It also gave an IP-10 of 140, an MCP-1 of 958 and an RANTES of 22609. It also gave a TNF-α of 13887.
For Bifidobacterium infantis [B. infantis], the Eotaxin was 18, the G-CSF was 145 and the GM-CSF was 123. It also gave an IFN-γ of 275, an IL-1B of 249 and an IL-1ra of 179. For the same substance, the IL-6 was 6136, the IL-8 was 4265 and the IL-10 was 55. It also gave an IL-12p70 of 66, an IL-13 of 1 and an IL-17 of 56. The IP-10 was 57, the MCP-1 was 451 and the RANTES was 2234. The TNF-α was 5728.

Same assay, conditions: Treatment NK + IL-2 (1000 units/ml); bacteria 1:5, 12-18 hours
For “Lactobacillus acidophilus [L. acidophilus]”, the Eotaxin was 21, the G-CSF was 89 and the GM-CSF was 127. For the same substance, the IFN-γ was 1329, the IL-1B was 335 and the IL-1ra was 487. The IL-6 was 2095, the IL-8 was 1116 and the IL-10 was 17. The IL-12p70 was 136, the IL-13 was 8 and the IL-17 was 63. The IP-10 was 51, the MCP-1 was 112 and the RANTES was 2353. The TNF-α was 1151.
Work on Lactobacillus paracasei [L. paracasei] yielded an Eotaxin of 27, a G-CSF of 138 and a GM-CSF of 157. For the same substance, the IFN-γ was 2112, the IL-1B was 523 and the IL-1ra was 551. For the same substance, the IL-6 was 7285, the IL-8 was 3983 and the IL-10 was 47. For the same substance, the IL-12p70 was 125, the IL-13 was 15 and the IL-17 was 63. For the same substance, the IP-10 was 90, the MCP-1 was 337 and the RANTES was 6468. It also gave a TNF-α of 6776.
Work on Lactobacillus plantarum [L. plantarum] yielded an Eotaxin of 36, a G-CSF of 129 and a GM-CSF of 181. It also gave an IFN-γ of 5484, an IL-1B of 466 and an IL-1ra of 500. For the same substance, the IL-6 was 4212, the IL-8 was 3415 and the IL-10 was 43. For the same substance, the IL-12p70 was 184, the IL-13 was 14 and the IL-17 was 73. For the same substance, the IP-10 was 115, the MCP-1 was 427 and the RANTES was 1923. The TNF-α was 9223.
With Bifidobacterium infantis [B. infantis] the Eotaxin was 19, the G-CSF was 190 and the GM-CSF was 163. The IFN-γ was 3073, the IL-1B was 422 and the IL-1ra was 459. For the same substance, the IL-6 was 6618, the IL-8 was 5090 and the IL-10 was 41. It also gave an IL-12p70 of 115, an IL-13 of 19 and an IL-17 of 72. The IP-10 was 113, the MCP-1 was 382 and the RANTES was 3225. It also gave a TNF-α of 5103.

Same assay, conditions: Treatment NK + IL-2 + anti-CD16 mAb (3 μg/ml); bacteria 1:5, 12-18 hours
“Lactobacillus acidophilus [L. acidophilus]” showed an Eotaxin of 31, a G-CSF of 102 and a GM-CSF of 199. The IFN-γ was 2715, the IL-1B was 654 and the IL-1ra was 493. It also gave an IL-6 of 3684, an IL-8 of 2004 and an IL-10 of 24. It also gave an IL-12p70 of 155, an IL-13 of 23 and an IL-17 of 73. The IP-10 was 69, the MCP-1 was 289 and the RANTES was 3999. It also gave a TNF-α of 5663.
In the case of Lactobacillus paracasei [L. paracasei], the Eotaxin is reported as 40, the G-CSF is reported as 153 and the GM-CSF is reported as 215. It also gave an IFN-γ of 2145, an IL-1B of 721 and an IL-1ra of 573. It also gave an IL-6 of 6867, an IL-8 of 6385 and an IL-10 of 43. The IL-12p70 was 123, the IL-13 was 27 and the IL-17 was 90. The IP-10 was 92, the MCP-1 was 427 and the RANTES was >22609. For the same substance, the TNF-α was 10128.
Work on Lactobacillus plantarum [L. plantarum] yielded an Eotaxin of 40, a G-CSF of 125 and a GM-CSF of 216. For the same substance, the IFN-γ was 3087, the IL-1B was 714 and the IL-1ra was 575. For the same substance, the IL-6 was 3679, the IL-8 was 3247 and the IL-10 was 37. The IL-12p70 was 155, the IL-13 was 20 and the IL-17 was 78. For the same substance, the IP-10 was 92, the MCP-1 was 335 and the RANTES was 4147. It also gave a TNF-α of 7942.
For Bifidobacterium infantis [B. infantis], the Eotaxin was 32, the G-CSF was 151 and the GM-CSF was 178. For the same substance, the IFN-γ was 1250, the IL-1B was 365 and the IL-1ra was 434. The IL-6 was 3927, the IL-8 was 3557 and the IL-10 was 34. The IL-12p70 was 47, the IL-13 was 22 and the IL-17 was 65. The IP-10 was 88, the MCP-1 was 360 and the RANTES was 2646. It also gave a TNF-α of 5287.
